Structures are written as SMILES.

Series [1] can be described thus: Selectivity index, ratio of GI50 for human THP1 macrophages to GI50 for blood stage of Trypanosoma brucei rhodesiense STIB 900.
For series [2], the system named is Trypanosoma brucei rhodesiense. Briefly: Antitrypanosomal activity against blood stage of Trypanosoma brucei rhodesiense STIB 900 (S704) Tanzania after 70 hrs by Alamar Blue assay. The format is functional. As to conditions: STIB 900, 70 h.
A short description of series [3]: Cytotoxicity against human THP1 macrophages after 48 hrs by Alamar Blue assay. The format is cell-based. As to conditions: THP-1 macrophages.

Take `CN1CCN(C(=O)/C=C/c2ccc3c(c2)-c2[nH]c4ccc(C(C)(C)C)cc4c2CC(=O)N3)CC1`: in series [1], the RatioGI50 is listed as less than 1. This compound also came in with a concentration for 50% growth inhibition (GI50) in series [2] of 24.4 µM. Also, the GI50 at 48 h in series [3] worked out at 17.8 µM.

Turning to `CC(C)(C)c1ccc2[nH]c3c(c2c1)CC(=O)Nc1ccc(/C=C/C(=O)c2ccco2)cc1-3`, the RatioGI50 in series [1] is 2.3. This compound also gave a GI50 in series [2] of 0.57 µM. The compound further yielded a GI50 at 48 h in series [3] of 1.3 µM.

For the compound `CC(C)(C)c1ccc2[nH]c3c(c2c1)CC(=O)Nc1ccc(/C=C/C(=O)c2ccccc2)cc1-3`, the RatioGI50 in series [1] amounted to 4.4. Besides, in series [2], the concentration for 50% growth inhibition (GI50) was 4 µM. This compound also registered a GI50 at 48 h in series [3] of 17.6 µM.

On to `CC(C)(C)c1ccc2[nH]c3c(c2c1)CC(=O)Nc1ccc(-c2ccc(C(F)(F)F)cc2)cc1-3`, for which the RatioGI50 in series [1] came out at 21.2. In addition, in series [2], the GI50 was determined as 2.6 µM. Also, the GI50 at 48 h in series [3] was 55.1 µM.

For the compound `COc1ccc(C(=O)/C=C/c2ccc3c(c2)-c2[nH]c4ccc(C(C)(C)C)cc4c2CC(=O)N3)c(OC)c1`, the RatioGI50 in series [1] is 5.8. In series [2], the GI50 amounted to 5.4 µM. In series [3], the GI50 at 48 h is 31.4 µM.

Consider `CC(C)(C)c1ccc2[nH]c3c(c2c1)CC(=O)Nc1ccc(/C=C/C(=O)c2cccnc2)cc1-3`, for which, in series [1], the RatioGI50 is reported as 8.7. Further, it took 9 µM to inhibit growth in series [2] by half (GI50). For the same compound, the GI50 at 48 h in series [3] amounted to 47.9 µM.

Consider `CC(C)(C)c1ccc2[nH]c3c(c2c1)CC(=O)Nc1ccc(CCC(=O)c2ccccc2)cc1-3`, for which the RatioGI50 in series [1] is on record as greater than 88.8. For the same compound, the GI50 in series [2] stood at 2.3 µM. In series [3], this compound showed a GI50 at 48 h greater than 100 µM.

For `CC(C)(C)c1ccc2[nH]c3c(c2c1)CC(=O)Nc1ccc(/C=C/C(=O)c2ccc(O)cc2)cc1-3`, the RatioGI50 in series [1] is given as 9.8. In series [2], this compound displayed a 50% growth inhibitory concentration (GI50) of 7.4 µM. Also, in series [3], the concentration for 50% growth inhibition (GI50) at 48 h stood at 72.6 µM.

In the case of `CC(C)(C)c1ccc2[nH]c3c(c2c1)CC(=O)Nc1ccc(/C=C/C(=O)Nc2ccccc2)cc1-3`, the RatioGI50 in series [1] is on record as less than 1. The compound also gave a GI50 in series [2] of 1.5 µM. Besides, the 50% growth inhibitory concentration (GI50) at 48 h in series [3] came out at 0.34 µM.

Consider `CC(C)(C)c1ccc2[nH]c3c(c2c1)CC(=O)Nc1ccc(-c2ccc4c(c2)OCO4)cc1-3`, for which the RatioGI50 in series [1] is listed as greater than 131.6. In series [2], it took 0.76 µM to inhibit growth by half (GI50). In series [3], this compound had a GI50 at 48 h greater than 100 µM.

`CC(C)(C)c1ccc2[nH]c3c(c2c1)CC(=O)Nc1ccc(/C=C/C(=O)Nc2ccc(Cl)cc2)cc1-3`: the RatioGI50 in series [1] is listed as less than 1. The same compound came in with a GI50 in series [2] of 2.5 µM. Halving of growth in series [3] (GI50 at 48 h) required 0.47 µM.

Regarding `COCCc1ccc(OCc2cccc(-c3ccc4c(c3)-c3[nH]c5ccc(C(C)(C)C)cc5c3CC(=O)N4)c2)cc1`, in series [1], the RatioGI50 is recorded as 7.6. The GI50 in series [2] is 1.7 µM. The GI50 at 48 h in series [3] was found to be 12.9 µM.

Turning to `CC(C)(C)c1ccc2[nH]c3c(c2c1)CC(=O)Nc1ccc(/C=C/C(=O)c2cccs2)cc1-3`, in series [1], the RatioGI50 was 3.4. For the same compound, it took 1.1 µM to inhibit growth in series [2] by half (GI50). This compound had a concentration for 50% growth inhibition (GI50) at 48 h in series [3] of 3.7 µM.

As for `COc1ccc(C(=O)/C=C/c2ccc3c(c2)-c2[nH]c4ccc(C(C)(C)C)cc4c2CC(=O)N3)cc1`, the RatioGI50 in series [1] amounted to 2.7. Also, in series [2], the concentration for 50% growth inhibition (GI50) was found to be 12.2 µM. Moreover, in series [3], growth was halved (GI50 at 48 h) at 32.6 µM.

For the compound `COc1cccc(-c2ccc3c(c2)-c2[nH]c4ccc(C(C)(C)C)cc4c2CC(=O)N3)c1`, the RatioGI50 in series [1] is given as greater than 62.5. The GI50 in series [2] turned out to be 1.6 µM. Moreover, the GI50 at 48 h in series [3] is greater than 100 µM.

With `CC(C)(C)c1ccc2[nH]c3c(c2c1)CC(=O)Nc1ccc(/C=C/C(=O)N2CCCCC2)cc1-3`, the RatioGI50 in series [1] amounted to 1.3. In series [2], this compound returned a GI50 of 4.7 µM. For the same compound, the GI50 at 48 h in series [3] was determined as 6.2 µM.

With `Cc1ccc(NC(=O)/C=C/c2ccc3c(c2)-c2[nH]c4ccc(C(C)(C)C)cc4c2CC(=O)N3)cc1`, in series [1], the RatioGI50 is less than 1. In series [2], the GI50 is 1.7 µM. This compound displayed a 50% growth inhibitory concentration (GI50) at 48 h in series [3] of 1.3 µM.

Consider `CC(C)(C)c1ccc2[nH]c3c(c2c1)CC(=O)Nc1ccc(/C=C/C(=O)Nc2cccc(Cl)c2)cc1-3`, for which, in series [1], the RatioGI50 is given as less than 1. In addition, in series [2], the concentration for 50% growth inhibition (GI50) turned out to be 1.6 µM. The compound also came in with a GI50 at 48 h in series [3] of 0.85 µM.

As for `CC(C)(C)c1ccc2[nH]c3c(c2c1)CC(=O)Nc1ccc(-c2ccccc2)cc1-3`, in series [1], the RatioGI50 was greater than 55.6. In series [2], this compound yielded a 50% growth inhibitory concentration (GI50) of 1.8 µM. In series [3], this compound returned a GI50 at 48 h greater than 100 µM.

On to `CN(C)c1cccc(-c2ccc3c(c2)-c2[nH]c4ccc(C(C)(C)C)cc4c2CC(=O)N3)c1`, for which the RatioGI50 in series [1] is on record as 40.8. In series [2], this compound gave a GI50 of 2.3 µM. The same compound returned a concentration for 50% growth inhibition (GI50) at 48 h in series [3] of 93.9 µM.

Consider `CC(C)(C)c1ccc2[nH]c3c(c2c1)CC(=O)Nc1ccc(/C=C/C(=O)NCc2ccccc2)cc1-3`, for which, in series [1], the RatioGI50 is on record as less than 1. The concentration for 50% growth inhibition (GI50) in series [2] turned out to be 3.5 µM. The same compound gave a GI50 at 48 h in series [3] of 0.93 µM.

For the compound `CC(C)(C)c1ccc2[nH]c3c(c2c1)CC(=O)Nc1ccc(/C=C/C(=O)c2ccc(Cl)cc2)cc1-3`, in series [1], the RatioGI50 came out at 2.2. Besides, in series [2], it took 18.3 µM to inhibit growth by half (GI50). Moreover, it took 40.8 µM to inhibit growth in series [3] by half (GI50 at 48 h).

In the case of `CC(C)(C)c1ccc2[nH]c3c(c2c1)CC(=O)Nc1ccc(-c2ccc(N4CCOCC4)cc2)cc1-3`, the RatioGI50 in series [1] is on record as 156.9. Further, in series [2], the GI50 was determined as 0.51 µM. In addition, in series [3], the GI50 at 48 h stood at 80 µM.

With `CC(C)(C)c1ccc2[nH]c3c(c2c1)CC(=O)Nc1ccc(/C=C/C(=O)N2CCOCC2)cc1-3`, the RatioGI50 in series [1] amounted to 3.5. The compound also displayed a GI50 in series [2] of 3.9 µM. This compound also came in with a concentration for 50% growth inhibition (GI50) at 48 h in series [3] of 13.7 µM.

Take `CC(C)(C)c1ccc2[nH]c3c(c2c1)CC(=O)Nc1ccc(C(=O)/C=C/c2ccccc2)cc1-3`: the RatioGI50 in series [1] was greater than 163.9. Besides, the concentration for 50% growth inhibition (GI50) in series [2] is 0.61 µM. Moreover, the GI50 at 48 h in series [3] is greater than 100 µM.

As to `COc1ccc(NC(=O)/C=C/c2ccc3c(c2)-c2[nH]c4ccc(C(C)(C)C)cc4c2CC(=O)N3)cc1`, in series [1], the RatioGI50 is given as less than 1. The compound further showed a concentration for 50% growth inhibition (GI50) in series [2] of 1.5 µM. In series [3], this compound returned a GI50 at 48 h of 0.36 µM.

Consider `COc1ccc(C(=O)/C=C/c2ccc3c(c2)-c2[nH]c4ccc(C(C)(C)C)cc4c2CC(=O)N3)cc1OC`, for which the RatioGI50 in series [1] amounted to 2.3. Also, the GI50 in series [2] is 4.2 µM. For the same compound, the concentration for 50% growth inhibition (GI50) at 48 h in series [3] was determined as 9.6 µM.

`COc1cc(C(=O)/C=C/c2ccc3c(c2)-c2[nH]c4ccc(C(C)(C)C)cc4c2CC(=O)N3)cc(OC)c1OC`: in series [1], the RatioGI50 came to 5.6. The same compound came in with a GI50 in series [2] of 2.6 µM. This compound also came in with a GI50 at 48 h in series [3] of 14.7 µM.

Consider `COc1ccc(-c2ccc3c(c2)-c2[nH]c4ccc(C(C)(C)C)cc4c2CC(=O)N3)cc1`, for which the RatioGI50 in series [1] is given as greater than 138.9. This compound displayed a GI50 in series [2] of 0.72 µM. In series [3], this compound returned a 50% growth inhibitory concentration (GI50) at 48 h greater than 100 µM.

On to `CCN(CC)C(=O)/C=C/c1ccc2c(c1)-c1[nH]c3ccc(C(C)(C)C)cc3c1CC(=O)N2`, for which the RatioGI50 in series [1] is recorded as 3.7. The same compound showed a concentration for 50% growth inhibition (GI50) in series [2] of 1.1 µM. In series [3], this compound yielded a concentration for 50% growth inhibition (GI50) at 48 h of 4.1 µM.

In the case of `CC(C)(C)c1ccc2[nH]c3c(c2c1)CC(=O)Nc1ccc(-c2ccc(OC(F)(F)F)cc2)cc1-3`, the RatioGI50 in series [1] is given as greater than 33.3. Moreover, the GI50 in series [2] stood at 3 µM. Moreover, the 50% growth inhibitory concentration (GI50) at 48 h in series [3] is greater than 100 µM.

For the compound `COc1ccc(OC)c(C(=O)/C=C/c2ccc3c(c2)-c2[nH]c4ccc(C(C)(C)C)cc4c2CC(=O)N3)c1`, in series [1], the RatioGI50 was 1.8. The 50% growth inhibitory concentration (GI50) in series [2] was 1.2 µM. In addition, growth in series [3] was halved (GI50 at 48 h) at 2.2 µM.

Source of the values: ChEMBL document CHEMBL2390909, “2-Arylpaullones are selective antitrypanosomal agents” (Eur J Med Chem, 2013).
